Reference: BindingDB's records for patent WO2022064009 (JANSSEN PHARMACEUTICA NV, 2022)

Target: CDK-activating kinase assembly factor MAT1/Cyclin-H/Cyclin-dependent kinase 7 (Homo sapiens, UniProt P50613)
Assay: n Vitro CDK7 (20 nM) Assay
Method: Compounds with potencies approaching the limit of detection of the assay (IC50 < 10 nM) were further assessed in a more sensitive fluorescence end-point assay. […] Absorbance at 340 nm was followed kinetically at an interval of 2 minutes for 8 hours.The assay was carried out with 100 μl reaction volume per well in a 384-well plate that was pre-spotted nanoliter volume of compounds by LabCyte Echo 555. Compound dilution plates were made by 2-fold (could vary upon necessity) dilution in DMSO for 11 concentrations plus a DMSO control of uninhibited reaction. 2x substrate and coupling reagent mixture was added to the assay plate followed by an addition of an equal volume of 40 nM CDK7/Cyclin H/MAT-1 complex. After mixing, assay plates were spun at 2000 rpm for 3 minutes and then transferred to the plate reader for data collection.

Sequence of CDK-activating kinase assembly factor MAT1/Cyclin-H/Cyclin-dependent kinase 7 (P51946 whole entry): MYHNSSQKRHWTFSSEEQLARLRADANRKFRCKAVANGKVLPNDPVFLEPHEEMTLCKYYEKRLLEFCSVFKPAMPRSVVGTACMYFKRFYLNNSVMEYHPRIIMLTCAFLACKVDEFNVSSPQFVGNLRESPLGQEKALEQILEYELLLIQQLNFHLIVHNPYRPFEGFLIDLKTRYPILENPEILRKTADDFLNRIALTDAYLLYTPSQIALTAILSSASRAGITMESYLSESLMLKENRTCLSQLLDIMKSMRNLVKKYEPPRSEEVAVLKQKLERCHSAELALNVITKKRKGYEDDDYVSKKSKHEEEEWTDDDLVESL
Sequence of CDK-activating kinase assembly factor MAT1/Cyclin-H/Cyclin-dependent kinase 7 (P50613 whole entry): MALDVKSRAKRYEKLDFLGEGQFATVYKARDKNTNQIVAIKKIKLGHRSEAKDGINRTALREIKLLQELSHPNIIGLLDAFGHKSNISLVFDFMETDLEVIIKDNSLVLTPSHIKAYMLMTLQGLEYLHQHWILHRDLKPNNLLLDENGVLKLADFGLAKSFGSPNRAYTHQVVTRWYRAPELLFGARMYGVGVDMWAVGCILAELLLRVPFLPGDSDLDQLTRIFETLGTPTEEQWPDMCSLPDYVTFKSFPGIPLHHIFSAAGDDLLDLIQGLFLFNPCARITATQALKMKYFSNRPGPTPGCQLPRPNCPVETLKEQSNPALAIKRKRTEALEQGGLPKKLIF
Sequence of CDK-activating kinase assembly factor MAT1/Cyclin-H/Cyclin-dependent kinase 7 (P51948 whole entry, further chain): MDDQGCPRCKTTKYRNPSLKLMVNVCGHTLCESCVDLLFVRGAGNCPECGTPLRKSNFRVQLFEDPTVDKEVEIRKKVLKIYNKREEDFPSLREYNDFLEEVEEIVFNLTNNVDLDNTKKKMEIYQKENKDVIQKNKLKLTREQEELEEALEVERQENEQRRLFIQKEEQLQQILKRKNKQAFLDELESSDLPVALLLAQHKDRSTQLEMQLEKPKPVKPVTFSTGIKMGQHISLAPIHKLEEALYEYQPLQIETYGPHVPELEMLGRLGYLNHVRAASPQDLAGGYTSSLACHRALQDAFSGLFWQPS

IC50: 575 nM
Compound: C[C@@H]1Cc2cnc(NC3CCOCC3)nc2CN1C(=O)[C@H]1CCN(C2COC2)C[C@@H]1c1ccccc1 [WO2022064009, Compound 159]
